Drawing on ChEMBL document CHEMBL1144791, “Facile synthesis of substituted trans-2-arylcyclopropylamine inhibitors of the human histone demethylase LSD1 and monoamine oxidases A and B” (Bioorg Med Chem Lett, 2008), this text covers kinact/KI and KI (inactivation) for four molecules.

Data set [1] has as its target MAO-B (amine oxidase [flavin-containing] B), Homo sapiens (UniProt P27338). The experiment in a line: Ratio of Kinact to KI of human MAOB.
Data set [2] deals with MAO-A (amine oxidase [flavin-containing] A), Homo sapiens (UniProt P21397). The experiment in a line: Ratio of Kinact to KI of human MAOA.
MAO-A (amine oxidase [flavin-containing] A), Homo sapiens, sequence (P21397 whole entry, looked up): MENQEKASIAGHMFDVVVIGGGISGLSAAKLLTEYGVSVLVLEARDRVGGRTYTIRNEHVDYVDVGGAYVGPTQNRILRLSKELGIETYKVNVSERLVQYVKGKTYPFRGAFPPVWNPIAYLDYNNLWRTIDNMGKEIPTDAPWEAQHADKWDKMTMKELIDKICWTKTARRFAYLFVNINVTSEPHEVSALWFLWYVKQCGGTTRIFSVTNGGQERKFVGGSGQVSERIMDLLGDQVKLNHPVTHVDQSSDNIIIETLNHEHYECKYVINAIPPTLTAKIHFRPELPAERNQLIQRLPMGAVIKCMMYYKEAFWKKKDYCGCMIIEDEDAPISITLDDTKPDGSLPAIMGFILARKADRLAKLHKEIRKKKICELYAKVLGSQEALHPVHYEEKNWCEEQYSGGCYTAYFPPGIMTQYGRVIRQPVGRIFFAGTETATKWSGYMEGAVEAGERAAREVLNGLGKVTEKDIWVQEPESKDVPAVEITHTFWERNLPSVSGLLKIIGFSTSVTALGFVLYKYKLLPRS
A further data set is described as follows: Inhibition of human MAOA. The settings on record: read-out: Kinact.
A further data set is described as follows: Inhibition of human MAOB. The settings on record: read-out: Kinact.

MAO-B (amine oxidase [flavin-containing] B), Homo sapiens, sequence (P27338 whole entry, looked up): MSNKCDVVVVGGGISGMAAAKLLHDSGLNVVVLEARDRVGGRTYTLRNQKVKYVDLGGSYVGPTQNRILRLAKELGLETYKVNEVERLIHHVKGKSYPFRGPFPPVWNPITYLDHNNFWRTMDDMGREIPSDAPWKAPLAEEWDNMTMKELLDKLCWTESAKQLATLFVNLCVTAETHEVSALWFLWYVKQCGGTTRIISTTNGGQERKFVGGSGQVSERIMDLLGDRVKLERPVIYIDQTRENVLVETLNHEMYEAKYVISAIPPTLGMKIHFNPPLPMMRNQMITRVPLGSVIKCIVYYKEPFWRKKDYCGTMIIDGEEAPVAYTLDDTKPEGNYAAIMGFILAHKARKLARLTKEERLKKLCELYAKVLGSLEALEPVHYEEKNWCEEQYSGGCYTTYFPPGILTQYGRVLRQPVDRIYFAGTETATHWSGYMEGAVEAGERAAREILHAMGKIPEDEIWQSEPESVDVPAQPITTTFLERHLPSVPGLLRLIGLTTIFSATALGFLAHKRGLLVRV

The kinact/KI is the second-order rate constant of inactivation. As for `NC1CC1(c1ccccc1)c1ccccc1` (stereo not drawn), the kinact/KI was less than 1.5 M⁻¹ s⁻¹ in data set [1] and less than 14 M⁻¹ s⁻¹ in data set [2].

On to `N[C@@H]1C[C@H]1c1ccsc1` (relative stereo), for which the KI (inactivation) in the data set “Inhibition of human MAOA” was determined as 1550 µM. Moreover, the values for the kinact/KI in data set [1] and in data set [2] were 22.3 M⁻¹ s⁻¹ and less than 18 M⁻¹ s⁻¹, respectively.

`N[C@@H]1C[C@H]1c1ccc(C(F)(F)F)cc1` (relative stereo): the figures for the KI (inactivation) in “Inhibition of human MAOB” and in “Inhibition of human MAOA” were 29.8 µM and 7.7 µM, respectively. The values for the kinact/KI in data set [1] and in data set [2] were 7510 M⁻¹ s⁻¹ and 2860 M⁻¹ s⁻¹, respectively.

Consider `N[C@@H]1C[C@H]1c1cccc2ccccc12` (relative stereo), for which the KI (inactivation) amounted to 38.7 µM in “Inhibition of human MAOB” and 9.8 µM in “Inhibition of human MAOA”. Further, the inactivation efficiency (kinact/KI) stood at 4840 M⁻¹ s⁻¹ in data set [1] and 362 M⁻¹ s⁻¹ in data set [2].
